Experimental data from patent US8097585B2, “Methods of treating inflammation by administration of heme oxygenase-1 and products of heme degradation” (priority 2002, dated 2012).
Structures can show the parent of a compound that is named as a salt.

Experiments:
HO-1 [1] = experiment: HO-1 protein expression in heart and spleen after CoPPIX (Western blot); type: in vivo, DBA/2 mice; details: CoPPIX 5 mg/kg i.p.
Description: Protein extraction and Western blot. DBA/2 mice were injected i.p. with CoPPIX at a dose of 5 mg/kg. Non-treated animals served as naïve controls. One, 2, 4, and 7 days following treatment, the heart and the spleen were excised from the animals, and samples were snap-frozen in liquid nitrogen. Protein extracts were prepared from the obtained tissues, electrophoresed under denaturing conditions (10% polyacrylamide gels) and transferred onto polyvinyldifluoridine membranes (Immobilon™ P, Millipore, Bedford, Mass.). HO-1 was detected using the rabbit anti-human HO-1 polyclonal antibody (Stress Gen Biotechnologies Corp., Victoria, Canada); α-actin was detected using the goat anti-mouse α-actin mAb (1A4, Sigma-Aldrich Corporation). Primary antibodies were detected using horseradish peroxidase conjugated donkey anti-rabbit or goat anti-mouse IgG secondary antibodies (Pierce, Rockford, Ill.). Protein was visualized using the Enhanced Chemi Luminescence (ECL™) Assay kit (Amersham Life Science Inc., Arlington Heights, Ill.), according to the manufacturer's instructions, and stored in the form of photo radiographs (Biomax™ MS, Eastman Kodak, Rochester, N.Y.). The amount of HO-1 expression was normalized with α-actin expression, and was quantified by using the ImageQuant™ software (Molecular Dynamics, Sunny Vale, Calif.).

[2] = tested on: B6AF1 splenocytes or purified T cells; experiment: Con A and anti-CD3 mAb mediated proliferation assay; type: cell-based, mouse
Description: Con A and anti-CD3 mAb mediated proliferation assay. B6AF1 splenocytes or purified T cells were prepared according to the herein-described method and used as responder cells. Responders (2.5×10^5/well) were stimulated with either Con A (1 μg/ml) or anti-CD3 mAb (1 μg/ml) and cultured in a 96 well round bottom plates. Purified T cells (5×10^4/well) were cultured in anti-CD3 mAb (10 μg/ml) coated 96 well flat bottom plates in the presence of anti-CD28 mAb (1 μg/ml). Cells were cultured with or without biliverdin (at various concentrations) for 48 hours at 37° C., 95% air with 5% CO2. They were pulsed with ^3H-thymidine (1 μCi/well) 16 hours before termination of cell culture and ^3H-thymidine incorporation was measured by using a β-counter. These proliferation assays were performed in triplicate and were repeated 3 times.

ICAM-1 = experiment: Real time RT-PCR of graft muscularis after SITx, ICAM-1; type: in vivo, LEW rats; details: BV treatment
Description: (§1) Small Intestinal Transplantation. Orthotopic small intestinal transplantation (SITx) was performed in syngeneic Lewis rats. SITx with caval drainage was performed using a previously described procedure (Murase et al., in Handbook of Animal Models in Transplantation Research, Cramer et al., Eds. CRC Press, Boca Raton, Fla., pp. 203-213 (1994)). […] The graft was perfused via the aortic segment with 5 ml chilled Ringer's lactate solution, and the intestinal lumen was irrigated with 20 ml of cold saline solution containing 0.5% neomycin-sulfate (Sigma, St. Louis, Mo.). […]
(§2) SYBR green real time RT-PCR. The effects of administration of biliverdin on transplant-induced pro-inflammatory and anti-inflammatory gene expression were assessed in muscularis extracts by RT-PCR Biliverdin ([…], i.p.) was administered to both the donor and recipient three hours preoperatively. […] Equal aliquots (5 μg) of total RNA from each sample were quantified by spectrophotometry (wavelength […]) and aliquoted at a concentration of 40 ng/μl. Peak mRNA expression was quantified in duplicate by SYBR Green two-step, real-time RT-PCR. […] Real-time PCR data were plotted as the ΔRn fluorescence signal versus the cycle number. […] Quantification of mRNA expression was normalized to GAPDH and calculated relative to control using the comparative CT method (Schmittgen et al., J. Biochem. Biophys. Methods 46(1-2):69-8, 2000). […]

HO-1 [3] = experiment: HO-1 induction during intestinal I/R injury; type: in vivo, LEW rats; details: BV treatment
Description: HO-1 Induction During Intestinal I/R Injury. Since HO-1 regulates heme catalysis and BV production, exogenously provided BV may influence endogenous HO-1 induction in BV-treated recipients. In the normal intestine, HO-1 protein expression was absent. Ischemia/reperfusion injury was associated with a gradual increase of HO-1 expression in air-treated grafts, reaching maximum level between 6 and 24 hours following reperfusion.

COX-2 = experiment: Real time RT-PCR of graft muscularis after SITx, COX-2; type: in vivo, LEW rats; details: BV treated rats
Description: as §1, §2

SMILES | HO-1 protein expression in the heart and spleen (HO-1 [1]) | time of maximal HO-1 expression after injection (HO-1 [1]) | proliferation of purified T cells ([2]; anti-CD3 mAb plus anti-CD28 mAb co-stimulation) | ConA or anti-CD3 mAb driven T cell proliferation ([2]; biliverdin 50 μM) | ConA or anti-CD3 mAb driven T cell proliferation ([2]; biliverdin 100 μM) | reduction of ICAM-1 expression in the graft (ICAM-1) | intestinal HO-1 production (HO-1 [3]) | reduction of mean relative COX-2 mRNA expression (COX-2)
C=CC1=C(C)c2cc3[n-]c(cc4nc(cc5[n-]c(cc1n2)c(C)c5CCC(=O)[O-])C(CCC(=O)[O-])=C4C)c(C)c3C=C.[Co+2].[H+].[H+] [CoPP, Cobalt protoporphyrin] | up-regulated | one | – | – | – | – | – | –
C=CC1=C(C)/C(=C/C2=NC(=C\c3[nH]c(/C=C4\NC(=O)C(C)=C4C=C)c(C)c3CCC(=O)O)/C(CCC(=O)O)=C2C)NC1=O [biliverdin, biliverdin dihydrochloride] | – | – | suppressed | significant suppressive effect | significant suppressive effect | up to 30% | did not have a significant effect | approximately 50%
